Laboratory results from patent US20130338092A1, “COMPOUNDS AND METHODS FOR TARGETING LEUKEMIC STEM CELLS” (The Broad Institute, Inc., priority 2011, published 2013).
Entries after “also recorded” stand apart in the source; their conditions may differ.

Assays:
LSC (dsRed+) = experiment: Stromal pretreatment of primary MSC stroma, triple coculture, leukemia cells; format: cell-based, murine; details: stroma pretreated three days, LSCs and HSPCs comingled
Description: In the context of primary MSC stroma (uncolored), both HSPCs (from actin-GFP mice (000329, Jackson Lab)) and LSC (dsRed+) populations were comingled together in a ratio of 2:1 within the same 384format wells. As in the stromal pretreatment screen with OP9 stroma, BRD7116 was added for three days to the stroma prior to the addition of the hematopoietic populations. 5 days after compound addition, wells were imaged in the red and green channels and total cells were counted using MetaXpress software from MDC.
This experiment was also performed in the context of primary MSC stroma. Both HSPCs and LSC populations were comingled together in the same wells, as a “triple” coculture.

primary leukemia cells = experiment: Gene expression profiling with GSEA; format: cell-based, murine; details: 5 μM, 6 hours in suspension
Description: To elucidate potential cell-autonomous effects of BRD7116, primary leukemia cells were exposed to either 5 μM BRD7116 or DMSO vehicle for 6 hours in suspension in IMDM (12440053, Invitrogen) with 10% FBS, 10 ng/ml mIL3, and 1× Pen-Strep.
RNA was isolated using a trizol-chloroform protocol or with a Qiagen RNeasy kit (74104, Qiagen). Total RNA from the samples was normalized to 20 ng/μl and the Illumina® TotalPrep™-96 RNA Amplification Kit (Applied Biosystems, PN #4393543) protocol was used for amplification in a semi automated process. The total RNA underwent reverse transcription to synthesize first-strand cDNA. This cDNA was then converted into a double-stranded DNA template for transcription. In vitro transcription synthesized aRNA and incorporated a biotin-conjugated nucleotide. […] Illumina's BeadArray Reader was used to measure the fluorescence intensity at each addressed bead location.
Gene-expression profiles were generated by using mouse ref-8 DNA microarray (Illumina) according to manufacturer's instruction. […] The resulting data was analyzed using Gene Set Enrichment Analysis method (Subramanian, A., Tamayo, P., Mootha, V. K., Mukherjee, S., Ebert, B. L., Gillette, M. A., Paulovich, A., Pomeroy, S. L., Golub, T. R., Lander, E. S., et al. (2005). Proc Natl Acad Sci USA 102, 15545-15550.). […]

OP9 stromal monolayers = experiment: Stromal viability in pulse treatment experiment (CellTiter-Glo); format: cell-based, murine; details: compared to DMSO control
Description: OP9 or MSCs were plated in white, 384 well plates (3570, Corning) and 24 hours later compounds were added in 8-point dose as described. Three days later the plates were put out to cool to room temperature, the cultures were aspirated, and 50 μl of CellTiterGlo reagent (G7570, Promega) diluted 1:3 in PBS was added to each well. The plates were covered and placed on an orbital shaker for 20 minutes then analyzed using either an LJL Analyst (LJL) or Envision (Perkin Elmer).
(§1) 13,500 GFP+ OP9 cells were plated onto gelatin coated, 96 well black, clear bottom plates (3904, Corning). 24 hours later, 2,000 sorted leukemia cells were plated onto the monolayer. Compounds (5 μM) were added either 1 (early pulse) or 4 (late pulse) days later at the same 5 μM working concentration of main coculture screen. In both cases, compounds were removed after 24 hours of treatment, the wells were washed, and fresh media without compound was added. The plates were imaged and analyzed 6 days after leukemia cell plating. The viability of the stroma was assessed using stromal monolayers grown alone and treated in parallel, with the same readout described in the stromal toxicity screen above.

CD45.1+ HSPCs = system: CD45.1+ HSPCs; parameters: species or system mice; details: mouse, in vivo
Description: Heterotypic cocultures containing dsRed+ LSCs, CD45.1+ HSPCs, and GFP+ MSCs were exposed to compounds for 48 hours, then transplanted en masse post trypsinization with untreated wild-type helper splenocytes (CD45.1+CD45.2+) into lethally irradiated, wildtype recipient animals (CD45.2+). Latency of leukemia onset was compared for mice receiving cocultures treated with compound compared to DMSO control treated cocultures. The engraftment of the normal HSPCs treated and injected along with the leukemia cells was quantified by FACs analysis of the bone marrow of mice alive at the 16 week endpoint across treatments.
As in vivo readouts may better reflect hematopoietic stem cell function compared to in vitro readouts (Purton, L. E., and Scadden, D. T. (2007). Cell Stem Cell 1, 263-270.; Bock, T. A. (1997). Stem Cells 15 Suppl 1, 185-195.), our results were confirmed using murine transplantation studies. […] Compounds that increase disease latency relative to DMSO control are considered active. […] Bone marrow repopulating ability is a functional measure of normal HSPCs, assessed by quantifying long-term engraftment and differentiation patterns in recipient mice (Bock, T. A. (1997). Stem Cells 15 Suppl 1, 185-195.; Nguyen, L. V., Vanner, R., Dirks, P., and Eaves, C. J. (2012). Nat Rev Cancer 12, 133-143.). […]

[1] = system: primary CD34+ cells from normal human cord blood; experiment: Human CD34+ CAFC assay, normal cells; details: 1.25 μM to 10 μM, 18 hours exposure
Description: Samples were centrifuged over Ficoll-Paque PLUS (GE Heathcare) step gradient (2000×g for 30 min in 50 ml tubes) to obtain mononuclear cells and then CD34^+ cells were selected with immunomagnetic beads (MACS Cell Separation, Miltenyi Biotec, Auburn, Calif.), except in one case, NPM1 mutation, which was CD34^− by flow cytometry and mononuclear cells were used. 50,000 cells were placed into 12.5 cm^2 flasks (Becton Dickinson Labware, Franklin Lakes, N.J.) in co-culture with the MS-5 mouse bone marrow-derived stromal cell line (kindly provided by Dr. Itoh, Dept. of Biology, Niigata University, Japan) and DMSO control and the number of final cobblestones was later read. The number of cells needed to form one cobblestone was then placed in triplicate for each sample with each drug at serial drug dilutions from 10 μM to 0.63 μM as well as with DMSO 0.5% for control purposes and incubated overnight with Iscove's modified Dulbecco's medium (IMDM, in house media preparation laboratory)+20% fetal calf serum (FCS, Atlanta Biologicals, Lawrenceville, Ga.) with glutamine (2 mM/ml, in house media preparation laboratory), monothioglycerol (MTG, 10 nM/ml, Sigma Cell Culture, St. Louis Mo.), c-Kit ligand (20 ng/ml, Amgen, Thousand Oaks, Calif.), Flt ligand (20 ng/ml, Imclone, Bridgewater, N.J.), TPO (20 ng/ml, Amgen) and IL-3 (20 ng/ml, Amgen). […]
The cells were treated with compound or DMSO carrier control at four doses (ranging from 1.25 μM to 10 μM) in triplicate for 18 hours, washed thoroughly, then plated onto human stromal MS-5 monolayers (Itoh, K., Tezuka, H., Sakoda, H., Konno, M., Nagata, K., Uchiyama, T., Uchino, H., and Mori, K. J. (1989). Exp Hematol 17, 145-153.) and maintained in coculture with one subsequent half media change. After 5 weeks (2 weeks for the FLT3-ITD sample (Moore, M. A., Dorn, D. C., Schuring a, J. J., Chung, K. Y., and Morrone, G. (2007). Exp Hematol 35, 105-116.)), cobblestone formation was determined, and dose-response curves against the 7 cell types were generated for each compound.

[2] = system: leukemia cells on OP9 cells; experiment: Coculture pulse treatment experiment; format: cell-based, murine; details: 24 hours at Day 1 or Day 4 post LSC plating
Description: as §1

Structure (SMILES) | leukemia cells on pretreated MSC stroma (LSC (dsRed+)) | gene expression changes (GSEA) (primary leukemia cells) | stromal viability after 24 hour pulse (CellTiter-Glo) (OP9 stromal monolayers) | differentiation patterns of engrafted HSPCs (CD45.1+ HSPCs) | toxicity against normal primary CD34+ cells (human CAFC) [1] | leukemia cells at Day 6 endpoint after 24 hour pulse [2] | leukemia cells at Day 6 endpoint after 24 hour pulse ([2]; listed as lovastatin)
CC1(C)C(C(=O)Nc2ccc(S(=O)(=O)c3ccc(NC(=O)C4C(C)(C)C4(C)C)cc3)cc2)C1(C)C [BRD7116] | selective inhibition of the leukemia cells; also recorded: an inhibition of the leukemia cells was observed | induces an AML differentiation program; also recorded: induction of an AML differentiation program |  |  |  |  | 
CCC(C)C(=O)OC1CC(C)C=C2C=CC(C)C(CCC(O)CC(O)CC(=O)O)C21 (stereo not shown) [Lovastatic acid] |  |  | no effect on stromal viability | normal differentiation patterns | neither compound showed toxicity | strong inhibition of leukemia cells | near-complete loss of leukemia cells
